Reference: article PMC8196580, “Identification of Kaurane-Type Diterpenes as Inhibitors of Leishmania Pteridine Reductase I” (Molecules, 2021)
Where two headings read alike, the source gives them in different places.

Experiments:
L. major [1] = assay: ChEMBL dataset of pIC50 values against L. major used for the RF model (Table S1); type: cell-based, Leishmania major; note: call rule not given here
L. major [2] = test system: L. major; parameters: method as in ChEMBL; details: ref ChEMBL, cited from earlier work
[3] = Active/Inactive class assigned to ChemBL structures for Random forest model construction (Table S1)
[4] = ChemBL structures with pIC50 values used for Random forest model construction (Table S1)
[5] = Active/Inactive class assigned to the ChEMBL pIC50 value for Random forest model construction, ref ChEMBL
[6] = ChemBL structures with pIC50 values used for Random forest model construction, L. major

Row | SMILES | Outcome (L. major [1]; [3]) | pIC50 Value (L. major [2]; [4]) | Outcome (L. major [1]; [5]) | pIC50 Value (L. major [2]; [6])
1 | CC(C)c1ccc(-c2nc3ccccc3[nH]2)cc1 [CHEMBL2298014] | Active | 5.57 |  | 
2 | C/C(=N/NC(N)=S)c1ccc(OCc2cn(CC(=O)c3ccc(Br)cc3)nn2)cc1 [CHEMBL4166113] | Active | 6.00 |  | 
3 | O=C(CCCCl)N1c2ccccc2Oc2ccc(Cl)cc21 [CHEMBL3759213] |  |  | Inactive | 4.00
4 | CCOc1ccc(N2C(=O)C(c3ccc(C)cc3)(c3ccc(C)cc3)C2c2cn(C)c3ccccc23)cc1 (stereo not shown) [CHEMBL2071566] | Active | 5.90 |  | 
5 | NC[C@@H]1O[C@H](O[C@H]2[C@@H](O)[C@H](O[C@@H]3[C@@H](O)[C@H](N)C[C@H](N)[C@H]3O[C@H]3O[C@H](CO)[C@@H](O)[C@H](O)[C@H]3N)O[C@@H]2CO)[C@H](N)[C@@H](O)[C@@H]1O [CHEMBL370143] |  |  | Inactive | 4.00
6 | CCCCCCCc1ccc(Nc2c3ccccc3nc3ccccc23)cc1 [CHEMBL316058] | Active | 6.10 |  | 
7 | COc1ccc(OC)c(/C=C/C(=O)C2=Cc3cc(Cl)ccc3OC2)c1 [CHEMBL1095286] | Active | 5.52 |  | 
8 | COc1ccccc1C(=O)N/N=C/c1ccc([N+](=O)[O-])cc1 [CHEMBL2382044] |  |  | Inactive | 4.50
9 | CCc1nnc(N2C(=O)C3C4C=CC(C4)C3C2=O)s1 (stereo not shown) [CHEMBL1255760] |  |  | Inactive | 4.00
10 | COc1ccccc1-c1nnc(-c2ccc(C(=O)N/N=C/c3ccccc3O)cc2)o1 [CHEMBL4074817] | Active | 5.38 |  | 
11 | Cc1ccc2cc(/C=C/C(=O)c3sccc3Br)c(Cl)nc2c1 [CHEMBL1940858] | Active | 5.74 |  | 
12 | CCCc1ccc(-[n+]2c(C)cc3cc(OC)cc(OC)c3c2C)cc1.F[B-](F)(F)F [CHEMBL517690] | Active | 5.79 |  | 
13 | CCOC(=O)C1=C(C)NC(C)=C(C(=O)OC)C1c1cccc([N+](=O)[O-])c1 (stereo not shown) [CHEMBL475534] |  |  | Inactive | 4.48
14 | CC1(C)C2CCC1(C)[C@H](OC(=O)/C=C/c1ccc(O)c(O)c1)C2 (stereo partly shown) [CHEMBL4177500] |  |  | Inactive | 4.31
15 | O=[N+]([O-])c1ccc2nc(-c3ccc(Cl)cc3)[nH]c2c1 [CHEMBL1407741] | Active | 5.63 |  | 
16 | Fc1cccc(Cl)c1Cc1nn2c(-c3ccccc3)nnc2s1 [CHEMBL1256825] |  |  | Inactive | 4.00
17 | c1cncc(-c2nc3ccccc3[nH]2)c1 [CHEMBL83103] | Active | 5.48 |  | 
18 | O=[N+]([O-])c1ccc(-c2nnc(NCc3cn(Cc4cccc(Cl)c4Cl)nn3)s2)o1 [CHEMBL1951533] |  |  | Inactive | 3.99
19 | Cc1ccc(/C=C/C(=O)C2=Cc3cc(Cl)ccc3OC2)cc1 [CHEMBL1094967] | Active | 5.56 |  | 
20 | c1ccc2[nH]c(-c3c[nH]c4ccccc34)nc2c1 [CHEMBL2298015] | Active | 5.43 |  | 
21 | O=[N+]([O-])c1cccc(-c2nc3ccccc3[nH]2)c1 [CHEMBL475377] | Active | 5.47 |  | 
22 | O=C(CCl)N(c1ccccc1)c1ccccc1 [CHEMBL1603760] |  |  | Inactive | 4.39

Row | SMILES | Outcome (L. major [1]; [3]) | pIC50 Value (L. major [2]; [4]) | Outcome (L. major [1]; [5]) | pIC50 Value (L. major [2]; [6])
23 | O=C(/C=C/C1=Cc2cc(Cl)ccc2OC1)c1ccccc1Cl [CHEMBL1097965] | Active | 5.91 |  | 
24 | NP(=O)(OCc1ccccc1[N+](=O)[O-])N(CCCl)CCCl (stereo not shown) [CHEMBL1256928] |  |  | Inactive | 4.52
25 | Ic1c(-c2ccccc2)nc2c(NCCN3CCOCC3)nccn12 [CHEMBL3634359] |  |  | Inactive | 4.97
26 | O=[N+]([O-])c1ccc2nc(-c3ccc(F)cc3)[nH]c2c1 [CHEMBL2297902] | Active | 5.52 |  | 
27 | Fc1ccc(-c2nc3ccccc3[nH]2)cc1 [CHEMBL1596095] | Active | 5.43 |  | 
28 | C#CCOc1ccc(/C=N/NC(N)=S)cc1OC [CHEMBL4159578] | Active | 5.85 |  | 
29 | C/C=C/C1=C(OC)C(=O)C(OC)=C(OC)C1=O [CHEMBL454996] |  |  | Inactive | 4.14
30 | c1ccc(-c2nc3ccccn3c2-c2cccnc2)cc1 [CHEMBL2151869] |  |  | Inactive | 4.65
31 | COc1ccc(/C=N/NC(=O)c2ccc(-c3nnc(-c4ccccc4OC)o3)cc2)c(O)c1 [CHEMBL4090407] |  |  | Active | 5.18
32 | c1ccc2c(Nc3ccc(NC4CCCC4)cc3)c3ccccc3nc2c1 [CHEMBL90679] | Active | 6.35 |  | 
33 | Cc1ccc(N2NC(=O)/C(=C/c3cc4c(cc3Cl)OCO4)C2=O)cc1C [CHEMBL1256889] |  |  | Inactive | 4.52
34 | C/C=C/C=C/c1nc2ccccc2n2ccc(OCC)c12 [CHEMBL3260219] | Active | 5.82 |  | 
35 | COc1cc(OC)c2c(C)[n+](-c3ccc4ccccc4c3)c(C)cc2c1.F[B-](F)(F)F [CHEMBL479838] | Active | 5.47 |  | 
36 | COc1cc(OC)c2c(C)[n+](-c3ccc(Br)cc3)c(C)cc2c1.F[B-](F)(F)F [CHEMBL520594] |  |  | Inactive | 4.71
37 | c1ccc2c(-c3cnc4n3CCS4)c[nH]c2c1 [CHEMBL1255759] |  |  | Inactive | 4.11
38 | COc1cc(/C=N\NC(N)=S)ccc1OCc1cn(CC(=O)c2ccc(Br)cc2)nn1 [CHEMBL4159895] |  |  | Active | 5.29
39 | COc1ccccc1C(=O)N/N=C/c1cccc(O)c1 [CHEMBL2382036] |  |  | Inactive | 4.48
40 | CCCN1CSC(=S)N(CC(=O)O)C1 [CHEMBL4282164] |  |  | Inactive | 4.16
41 | CN(C)Cc1ccc(Nc2c3ccc(Cl)cc3nc3cc(Cl)ccc23)cc1 [CHEMBL36404] | Active | 5.70 |  | 
42 | CNC(=N)c1ccc(N2CCN(c3nnc(-c4ccc([N+](=O)[O-])o4)s3)CC2)cc1.Cl [CHEMBL1783201] |  |  | Inactive | 4.64
43 | COCC1=C(C(=O)OC)C(c2cccc([N+](=O)[O-])c2)NC(=O)N1 (stereo not shown) [CHEMBL3786102] | Active | 5.53 |  | 
44 | CCCCOc1ccc(-c2nc3ccccc3[nH]2)cc1 [CHEMBL531335] | Active | 5.61 |  | 

Row | SMILES | Outcome (L. major [1]; [3]) | pIC50 Value (L. major [2]; [4]) | Outcome (L. major [1]; [5]) | pIC50 Value (L. major [2]; [6])
45 | CC(=O)C1=C(C)NC(=O)NC1c1ccccc1 (stereo not shown) [CHEMBL1496818] | Active | 5.58 |  | 
46 | O=[N+]([O-])c1ccc(-c2nnc(N3CCN(c4ccccc4)CC3)s2)o1 [CHEMBL448103] | Active | 7.00 |  | 
47 | O=C(CCl)n1c2ccccc2c2ccccc21 [CHEMBL1651449] |  |  | Inactive | 4.00
48 | CCOC(=O)C/C(=N/O)c1nnn[nH]1 [CHEMBL1255762] |  |  | Inactive | 4.00
49 | CC(C)=CCC/C(C)=C/CC/C(C)=C/COc1ccc2ccc(=O)oc2c1 [CHEMBL156127] |  |  | Inactive | 4.88
50 | Cc1ccc2c(n1)[nH]c1ccccc12 [CHEMBL1255761] |  |  | Inactive | 4.01
51 | CCn1nc(C)cc1-c1nnc2sc(-c3ccc(C)cc3)nn12 [CHEMBL1256826] |  |  | Inactive | 4.05
52 | O=[N+]([O-])c1ccc2nc(-c3ccccn3)[nH]c2c1 [CHEMBL380979] | Active | 5.52 |  | 
53 | Cn1c([N+](=O)[O-])cnc1-c1nnc(N2CCN(C(=O)c3cccs3)CC2)s1 [CHEMBL482666] |  |  | Inactive | 4.59
54 | COc1cc2c(c(OC)c1-c1c(C)cc3cccc(OC)c3c1O)C(C)=N[C@@H](C)C2 [CHEMBL222436] |  |  | Inactive | 4.00
55 | CC(C)=CC(=O)N[C@H]1CC[C@@]2(C)[C@@H](CC[C@@H]3[C@@H]2CC[C@]2(C)C([C@H](C)N(C)C)=CC[C@@H]32)[C@H]1O [CHEMBL496487] |  |  | Inactive | 4.95
56 | Nc1ccc(Nc2c3ccccc3nc3ccccc23)cc1 [CHEMBL289352] | Active | 5.68 |  | 
57 | Cc1ccc(C2=NNC(c3cc4cccc(C)c4nc3Cl)C2)s1 (stereo not shown) [CHEMBL2235720] | Active | 5.58 |  | 
58 | COc1ccc2c(c1)C=C(C(=O)/C=C/c1ccc(Cl)c(Cl)c1)CO2 [CHEMBL3329269] | Active | 6.00 |  | 
59 | COc1ccccc1-c1nnc(-c2ccc(C(=O)N/N=C/c3ccc(F)cc3)cc2)o1 [CHEMBL4099059] |  |  | Inactive | 4.85
60 | COC(=O)C1=C(C)NC(C)=C(C(=O)OC)C1c1ccccc1[N+](=O)[O-] [CHEMBL193] |  |  | Inactive | 3.74
61 | Cc1ccc2cc(C3CC(c4ccsc4)=NN3)c(Cl)nc2c1 (stereo not shown) [CHEMBL2236135] | Active | 5.54 |  | 
62 | O=C(/C=C/c1ccc(-n2ccnc2)cc1)c1cccc(O)c1 [CHEMBL571179] | Active | 5.48 |  | 
63 | Nc1ccc(Nc2c3ccccc3nc3ccccc23)cn1 [CHEMBL84678] | Active | 5.41 |  | 
64 | O=[N+]([O-])c1ccc(-c2nnc(N3CCNCC3)s2)o1 [CHEMBL195646] |  |  | Active | 5.05
65 | C/C=C/c1cc(O)c(OC)c(OC)c1 [CHEMBL489518] |  |  | Inactive | 3.43
